Assays:
Solubility in water = assay type: physicochemical
[1] = refrigerator: 2 to 8° C.; cited from earlier work

| SMILES | solubility in water (Solubility in water) | true solubility of leucovorin (calculated as folinic acid) [1] [mg per ml] |
| --- | --- | --- |
| Nc1nc2c(c(=O)[nH]1)N(C=O)C(CNc1ccc(C(=O)NC(CCC(=O)[O-])C(=O)[O-])cc1)CN2.[Zn+2] (centres unmarked) [leucovorin zinc] | almost insoluble in water |  |
| Nc1nc2c(c(=O)[nH]1)N(C=O)C(CNc1ccc(C(=O)N[C@@H](CCC(=O)O)C(=O)O)cc1)CN2 (single isomer, unassigned) [leucovorin] |  | 3 |

— patent US9642853B2, “Stable pharmaceutical composition containing folates” (APROFOL AG, priority 2013, dated 2017)
